Data set [1] is described as follows: Pharmacokinetic study in rat (iv or oral gavage). To be noted: SD rat; for AUC compared with that of Example 5, in words: oral. Type of data set: in vivo, SD rats. From the text:
To further elucidate therapeutic potential of drug compounds, pharmacokinetic (PK) data is used to establish the key parameters predictive of the therapy outcome, such as area under the curve (AUC) for a plot monitoring the change in the systemic drug concentration over time. Thus, a higher AUC value indicates a greater exposure to the drug, commonly associated with a greater therapeutic potential due to a higher amount of drug available to combat the infection in a mammal. In contrast, a lower AUC value indicates a reduced exposure to the drug under study, resulting in a reduced amount of antibiotic available to combat bacterial infestations. To that end, the compounds described herein were tested in a rat PK model of oral administration performed analogously to methods described in the monograph Current Protocols in Pharmacology, 2005, 7.1.1-7.1.26, John Wiley & Sons, Inc.
All the compounds were administered to SD rats (The rats were randomly divided into groups with 3 rats in each group) by intravenous (iv) or oral gavage. Since the prodrugs are expected to convert to the parent molecule in vivo, only the parent compound (the compound of Example 5) was tested for all samples. […] This low bioavailability as well as low exposure (AUC) and C max make it inappropriate for development as oral drug. […] Because the prodrugs usually have larger molecular weight due to the introduction of prodrug substructures, the AUC is corrected by dose and molecular weight (MW) to give AUC per mole, to compare the efficiency among the prodrugs.

The next data set concerns E. coli MECO 002. Kind of data set: In vitro antibacterial activity (MIC), E. coli. The data set is classed as cell-based. The following applies: Escherichia coli, MECO002. From the text:
(§1) The in vitro activity of compounds described herein may be assessed by standard testing procedures such as the determination of minimum inhibitory concentration (MIC) as described in Approved Standard. Methods for Dilution Antimicrobial Susceptibility Tests for Bacteria that Grow Aerobically, 3rd ed., 1993, published by the National Committee for Clinical Laboratory standards, Villanova, Pennsylvania, USA. Low MIC values indicate high antibacterial activity, while high MIC values reveal a reduced antibacterial activity (with higher drug concentration required for pathogen eradication in the latter instance). Generally, MIC values of about ≤4-8 μg/mL indicate a therapeutic (i.e. suitable for therapy) potency for antibacterial drugs, while MIC values of ≥16 μg/mL indicate a lack of therapeutically useful activity for a test compound.

A further data set concerns K. pneumoniae ATCC10031. As to the kind of experiment: In vitro antibacterial activity (MIC), K. pneumoniae. Type of data set: cell-based. To be noted: Klebsiella pneumoniae.
Source text: as §1

A further data set deals with A. baumannii MABA 0001. Kind of data set: In vitro antibacterial activity (MIC), A. baumannii. Type of data set: cell-based. The following applies: Acinetobacter baumannii, MABA0001.
Source text: as §1

A further data set concerns P. aeruginosa PAE 1001. As to the kind of experiment: In vitro antibacterial activity (MIC), P. aeruginosa. Type of data set: cell-based. The following applies: Pseudomonas aeruginosa, PAE1001.
Source text: as §1

Data set [2] relates to Pseudomonas aeruginosa WPAE 1004. As to the kind of experiment: Pseudomonas aeruginosa mouse lung infection model. To be noted: ICR mouse, po 10 mg/kg once daily; for WPAE 1004, Lg (CFU/lung) 24 h: oral suspension; for Δ 24 h (Control-Theray), log reduction of CFU in lung: vs untreated control. The data set is classed as in vivo. On the procedure:
To establish the efficacy of the compounds described herein in vivo, a Pseudomonas aeruginosa mouse lung infection model was performed by administering test compounds analogously to the method described in Andes et al. in Antimicrobial Agents and Chemotherapy, 2002, 46(11), 3484-3489. In this model, a greater reduction in the bacterial colony-forming units (CFU) indicates more beneficial therapeutic effect (more bacterial eradication), while a lower CFU reduction indicates a lower effect (less bacterial eradication). The in vivo antibacterial effect is also referred to as “efficacy”, in contrast to the term “potency,” which is commonly used for in vitro activity (expressed as MIC).
In the Pseudomonas aeruginosa ICR mouse (The mice were randomly divided into groups with 6 mice in each group) lung infection, reference Example 5 was administered orally at 10 mg/kg once daily. […] As a prodrug for oral administration, the compound of Example 2 and 8 were also given by oral gavage at 10 mg/kg once daily. […] The data is strongly supportive of the prodrug of Example 2 and 8 being converted to reference compound of Example 5 after oral administration to exert the antibacterial activity. The data also supports a high conversion rate.

The nature of data set [3]: Lung vs. plasma distribution study in mice. To be noted: Balb/C mouse. The data set is classed as in vivo.
For data set [4], the system named is Gram-negative bacteria, including Pseudomonas aeruginosa, Acinetobacter baumannii, Escherichia coli, and Klebsiella pneumoniae. As to the kind of experiment: In vitro antibacterial activity (MIC), summary over Gram-negative bacteria. Type of data set: cell-based. The following applies: for in vitro antibacterial activity in words: prodrugs of Example 5, Table 1 data.
Source text: as §1

Where [5] appears, read: in vivo, iv 5 mg/kg, parent compound (Example 5) measured.

Molecules are shown by their SMILES. Read-outs that look alike come from different tables or passages of the source. Some results are limits rather than exact numbers.

As usually defined, the MIC is the lowest concentration that inhibits growth of the organism. Turning to `CC(=O)OC[C@H](COc1cccc2c1B(O)O[C@@H]2CN)OC(C)=O.Cl` [Example 1, (2S)-3-acetoxy-1-{[(3S)-3-(aminomethyl)-1-hydroxy-1,3-dihydrobenzo[2,1-c][1,2]oxaborol-7-yl]oxy}propan-2-yl acetate hydrochloride], the “AUC compared with that of Example 5, in words” value (“AUC compared with that” below) in data set [1] is “significantly higher”. Further, the minimal inhibitory concentration (MIC) in the data set with E. coli MECO 002, against K. pneumoniae ATCC10031, in the data set with A. baumannii MABA 0001 and in the data set with P. aeruginosa PAE 1001 was more than 32 µg/mL throughout.
On to `CC(C)C(=O)OC[C@H](COc1cccc2c1B(O)O[C@@H]2CN)OC(=O)C(C)C.Cl` [Example 2, (2S)-1-{[(3S)-3-(aminomethyl)-1-hydroxy-1,3-dihydrobenzo[2,1-c][1,2]oxaborol-7-yl]oxy}-3-[(2-methylpropanoyl)oxy]propan-2-yl 2-methylpropanoate hydrochloride], for which the “AUC compared with that” value in data set [1] is reported as “significantly higher”. Further, the MIC against E. coli MECO 002, in the data set on K. pneumoniae ATCC10031, against A. baumannii MABA 0001 and in the data set on P. aeruginosa PAE 1001 was more than 32 µg/mL each time. In addition, the “WPAE 1004, Lg (CFU/lung) 24 h” value in data set [2] is reported as 7.50 ± 0.73 Lg (CFU/lung). Further, the “Δ 24 h (Control-Theray), log reduction of CFU in lung” value in data set [2] was 1.77 Lg (CFU/lung). The “AUClast, lung” value is 968 ng·h/g in data set [3] (Example 2 10 mg/kg po, levels for Example 2) and 23589 ng·h/g in data set [3] (Example 2 10 mg/kg po, levels for Example 5). The “in vitro antibacterial activity in words” value in data set [4] is “inactive”.
Consider `CC(C)(C)C(=O)OC[C@H](COc1cccc2c1B(O)O[C@@H]2CN)OC(=O)C(C)(C)C.Cl` [Example 3, (2S)-3-[(2,2-dimethylpropanoyl)oxy]-1-{[(3S)-3-(aminomethyl)-1-hydroxy-1,3-dihydrobenzo[2,1-c][1,2]oxaborol-7-yl]oxy}propan-2-yl 2,2-dimethylpropanoate hydrochloride], for which the “AUC compared with that” value in data set [1] was “significantly higher”. For the same molecule, the MIC in the data set with E. coli MECO 002, in the data set with K. pneumoniae ATCC10031, with A. baumannii MABA 0001 and against P. aeruginosa PAE 1001 was more than 32 µg/mL each time. In addition, in data set [4], the “in vitro antibacterial activity in words” value is “inactive”.
With `CC(C)C(=O)OC[C@@H]1COc2cccc3c2B(O1)O[C@@H]3CN.Cl` [Example 4, [(2S,6S)-2-(aminomethyl)-4-bora-3,5,8-trioxatricyclo[7.3.1.04,13]trideca-1(12),9(13),10-trien-6-yl]methyl 2-methylpropanoate hydrogen chloride], the “AUC compared with that” value in data set [1] is on record as “significantly higher”. For the same molecule, the MIC in the data set on E. coli MECO 002, against K. pneumoniae ATCC10031, against A. baumannii MABA 0001 and in the data set with P. aeruginosa PAE 1001 was more than 32 µg/mL throughout. The “in vitro antibacterial activity in words” value in data set [4] is “inactive”.
What is called AUC is the area under the concentration-time curve, a measure of exposure. By Cmax is commonly meant the highest concentration seen after dosing. As for `Cl.NC[C@H]1OB2O[C@H](CO)COC3C=CC=C1C23` (stereo partly drawn) [Example 5, [(2S,6R)-2-(aminomethyl)-4-bora-3,5,8-trioxatricyclo[7.3.1.04,13]trideca-1(12),10-dien-6-yl]methanol hydrochloride, reference compound], the AUC in data set [1] (setting [5]) came to 5660 ng·h/mL. Also, the Cmax in data set [1] (setting [5]) came to 6780 ng/mL. The MIC in the data set with E. coli MECO 002 amounted to 2 µg/mL; with K. pneumoniae ATCC10031, 4 µg/mL; against A. baumannii MABA 0001 it was 2 µg/mL; against P. aeruginosa PAE 1001, 2 µg/mL. Besides, the “WPAE 1004, Lg (CFU/lung) 24 h” value in data set [2] was 8.56 ± 0.49 Lg (CFU/lung). Also, the “Δ 24 h (Control-Theray), log reduction of CFU in lung” value in data set [2] is recorded as 0.53 Lg (CFU/lung). Besides, the “AUClast, lung” value in data set [3] (Example 5 10 mg/kg iv, levels for Example 5) amounted to 12822 ng·h/g. The Kp in data set [3] (lung/plasma, Example 5 10 mg/kg iv, levels for Example 5, read-out: AUC ratio (lung/plasma)) came to 2.39. Further, the half-life was 1.46 h in data set [3] (lung, Example 5 10 mg/kg iv, levels for Example 5, read-out: t1/2, lung (converted)) and 1.87 h in data set [3] (plasma, Example 5 10 mg/kg iv, levels for Example 5, read-out: t1/2, plasma (converted)). Besides, the AUC(0-t) in data set [3] (plasma, Example 5 10 mg/kg iv, levels for Example 5, read-out: AUClast, plasma) came to 5360 ng·h/mL. Also, the “MIC range against Gram-negative bacteria” value in data set [4] (range over the four strains of Table 1) fell in the range of 2 to 4 µg/mL.
`CCC(=O)OC[C@H](COc1cccc2c1B(O)O[C@@H]2CN)OC(=O)CC.Cl` [Example 6]: the “AUC compared with that” value in data set [1] is “significantly higher”.
The same measure, in the same setting: then `CC(=O)OC[C@@H]1COc2cccc3c2B(O1)O[C@@H]3CN.Cl` [Example 7, [(2S,6S)-2-(aminomethyl)-4-bora-3,5,8-trioxatricyclo[7.3.1.04,13]trideca-1(12),9(13),10-trien-6-yl]methyl acetate hydrogen chloride], with “significantly higher”.
As to `CCC(=O)OC[C@@H]1COc2cccc3c2B(O1)O[C@@H]3CN.Cl` [Example 8, [(2S,6S)-2-(aminomethyl)-4-bora-3,5,8-trioxatricyclo[7.3.1.04,13]trideca-1(12),9(13),10-trien-6-yl]methyl propanoate hydrogen chloride], the “AUC compared with that” value in data set [1] is given as “significantly higher”. Moreover, the MIC against E. coli MECO 002, against K. pneumoniae ATCC10031, with A. baumannii MABA 0001 and in the data set on P. aeruginosa PAE 1001 was more than 32 µg/mL in each case. Moreover, in data set [2], the “WPAE 1004, Lg (CFU/lung) 24 h” value is reported as 8.45 ± 0.64 Lg (CFU/lung). For the same molecule, the “Δ 24 h (Control-Theray), log reduction of CFU in lung” value in data set [2] was 0.82 Lg (CFU/lung). The “in vitro antibacterial activity in words” value in data set [4] was “inactive”.

(Values after patent publication US20240279247A1, “PRODRUGS OF BORON COMPOUNDS AND THEIR USE IN TREATING BACTERIAL INFECTIONS” (priority 2022, published 2024).)
